Measurements taken from patent US20190358242A1, “COMPOSITIONS, KITS, AND METHODS TO INDUCE ACQUIRED CYTORESISTANCE USING STRESS PROTEIN INDUCERS” (FRED HUTCHINSON CANCER RESEARCH CENTER, priority 2017, published 2019).
Where “and” joins values, the source holds several entries; their conditions need not be identical. Identical values can stand only once.

How the values were obtained:
HO-1 protein [1] = assay: Kidney HO-1 protein (ELISA); type: in vivo, CD-1 mice
Procedure: (§1) Thirty-two mice were divided into 4 equal groups: (1) control mice; (2) mice treated with 1 mg of N-Mgb injection (as a bolus through the tail vein); (3) mice treated with […] of SnPP (via tail vein); and (4) mice treated with combined N-Mgb 1 SnPP. After either 4 hours (n=16) or 18 hours (n=16), the mice were deeply anesthetized with pentobarbital (50 mg/kg), the abdomen was opened through a midline abdominal incision, and the kidneys were removed. To determine potential effects on extrarenal organs, a liver lobe and the heart were also removed. The tissues were iced and then extracted for protein and RNA (RNeasy Plus Mini; Qiagen, Valencia, Calif.) and subjected to enzyme linked immunosorbent assay (ELISA) and reverse transcriptase polymerase chain reaction (RT-PCR) for HO-1, haptoglobin, and IL-10 protein and messenger RNAs (mRNAs). Zager et al. J Am Soc Nephrol 2014; 25:998-1012; Zager et al. Am J Physiol 2012; 303:F139-48. As an assessment of renal function, control mice and the 18 hour after N-Mgb+SnPP-treated mice had blood urea nitrogen (BUN) and plasma creatinine levels measured. Additionally, transverse 10% formalin fixed kidney sections ([…]) were cut and stained with hematoxylin and eosin (H&E) and periodic acid Schiff (PAS) to further assess potential injury.

IL-10 protein = assay: Liver IL-10 protein (ELISA); type: in vivo, CD-1 mice
Procedure: as §1

HO-1 mRNA [2] = assay: Liver HO-1 mRNA (RT-PCR); type: in vivo, CD-1 mice
Procedure: as §1

HO-1 protein [3] = assay: Renal cortex HO-1 protein (ELISA) after IV myoglobin, SnPP or both; type: in vivo, CD-1 mice; settings: 4 hr IV; 1 mg myoglobin, 1 μmole SnPP
Text: The Glycerol Model of AKI. This is a widely used model of rhabdomyolysis-induced AKI that has been employed worldwide for 50 years. The model was used to test whether prophylactic interventions confer protection against AKI. Basically, the protocol is as follows: Male CD-1 mice (35-45 grams), obtained from Charles River Laboratories, Wilmington, Mass. were studied. Mice were maintained under standard vivarium conditions and generally housed for 1-3 weeks prior to study. The mice were placed in a cylindrical restraining cage, and then were given a tail vein injection of the test substances (see below) or test substance vehicle. The mice were then returned to their cages. Eighteen hours (hrs) later, the mice were briefly anesthetized by isoflurane inhalation, and given an intramuscular injection of hypertonic (50%) glycerol in a dose of 9 ml/Kg body weight. The dose is divided in two, with half injected into the muscle of each of the hind limbs. The mice were then returned to their cages. Eighteen hrs later, the mice were deeply anesthetized with pentobarbital (50-100 mg/Kg), the abdominal cavity was opened through a midline abdominal incision, a blood sample was obtained from the abdominal vena cava and the kidneys were resected. A kidney cross section was obtained and fixed in formalin for subsequent histologic analysis. The terminal blood samples were analyzed for BUN and creatinine, using commercially available assay kits. The remaining kidney tissue was subjected to cortical dissection, and the cortical tissues were then extracted for protein and RNA. The protein samples were saved for analysis of HO-1 levels, and the RNA samples were subjected to RT-PCR to quantify HO-1 mRNA as well as levels of other stress gene mRNAs (e.g. NGAL, haptoglobin, hemopexin, hepicidin).
Myoglobin+SnPP: To 5 mg of dry myoglobin was added 0.9 ml of PBS+0.1 ml of a stock SnPP solution (50 umole/ml). The resulting final concentrations were 5 mg/ml myoglobin+5 umoles/ml of SnPP. The tail vein was injected with 200 ul of this solution, which equals 1 mg myoglobin+1 umole SnPP. […]
Four hr post myoglobin vs myoglobin+SnPP vs SnPP alone experiments. To confirm that the myoglobin+SnPP has a synergistic effect in inducing HO-1 mRNA and HO-1 protein levels, each of the above combinations have been administered alone via tail vein injection. Four hrs later, the mice were sacrificed as noted above and the kidneys were harvested for assessment of HO-1 mRNA and protein levels. For additional information regarding methods, see Zager et al., Am J Physiol Renal Physiol. 2014 Jul. 30. Pii.
Given that it is just 4 hrs post injection, the mRNA increases are greater than the protein increases as protein synthesis must follow the mRNA induction-requiring more time.

HO-1 mRNA [4] = assay: SnPP vs. SnMeP: renal cortical HO-1 mRNA induction (RT-PCR); type: in vivo, mice; settings: 1 umole, 4 hrs post injection, n 3
Text: FIG. 28. Comparison of SnPP vs. SnMeP effects on renal cortical HO-1 and haptoglobin mRNA induction 4 hrs post agent injection. Mice received either 1 umole tin protoporphyrin (SnPP), tin mesoporphyrin (SnMeP), or vehicle (n, 3 each) and 4 hrs renal cortical RNA was extracted and subjected to RT-PCR.

HO-1 protein [5] = assay: Liver HO-1 protein (ELISA); type: in vivo, CD-1 mice; set-up: unit not given beside the values
Procedure: as §1

haptoglobin mRNA = assay: Kidney haptoglobin mRNA (RT-PCR); type: in vivo, CD-1 mice
Procedure: as §1

haptoglobin protein = assay: Cardiac haptoglobin protein (ELISA); type: in vivo, CD-1 mice
Procedure: as §1

[6] = 4 h after IV injection, N-Mgb 1 mg, SnPP 1 mmol [sic]

## C=Cc1c2[n-]c(c1C)/C=c1\[n-]/c(c(C)c1C=C)=C\c1[n-]c(c(CCC(=O)O)c1C)/C=c1\[n-]c(c(C)c1CCC(=O)O)=C2.[Sn+4] [SnPP, tin protoporphyrin]
HO-1 protein [1]; 18-hour time point, agent alone
  Renal HO-1 protein increase, in words: only relatively small HO-1 protein increases
HO-1 protein [1]; [6]
  Kidney HO-1 protein: 22.9 ± 2.6
HO-1 protein [1]; 18 h after IV injection
  Kidney protein HO-1: 18 ± 2
IL-10 protein; 4 h after IV injection
  Liver protein IL-10: 485 ± 47
IL-10 protein; 18 h after IV injection
  Liver protein IL-10: 8198 ± 725
HO-1 mRNA [2]; 4 h after IV injection
  Liver mRNA HO-1: 3.15 ± 0.25
HO-1 mRNA [2]; 18 h after IV injection
  Liver mRNA HO-1: 2.56 ± 0.21
HO-1 protein [3]
  Cortex HO-1 protein (ELISA), Average: 34.4 ng HO-1/mg protein
  Cortex HO-1 protein (ELISA), individual mice: 31.5 ng HO-1/mg protein and 20.5 ng HO-1/mg protein and 53.6 ng HO-1/mg protein and 32.2 ng HO-1/mg protein
HO-1 mRNA [4]
  Renal cortical HO-1 mRNA induction: raised
HO-1 protein [5]; 4 h after IV injection
  Liver protein HO-1: 7.4 ± 0.7
HO-1 protein [5]; 18 h after IV injection
  Liver protein HO-1: 18 ± 2.5
Haptoglobin mRNA; [6]
  Kidney mRNA Haptoglobin: 0.19 ± 0.01
Haptoglobin mRNA; 18 h after IV injection
  Kidney mRNA cortex Haptoglobin: 0.23 ± 0.08
Haptoglobin protein; 4 h after IV injection
  Cardiac protein Haptoglobin: 19.1 ± 2.1
Haptoglobin protein; 18 h after IV injection
  Cardiac protein Haptoglobin: 96.1 ± 36.2
